{"source": "the supplement of paper PMC13380429", "key": {"[1]": {"tested_on": "A549-ACE2 infected with SARS-CoV-2", "experiment": "cell count relative to DMSO; higher = less toxic", "conditions": "24 h"}, "Caco-2 [2]": {"tested_on": "Caco-2", "experiment": "cell viability relative to DMSO; higher = less toxic", "conditions": "72 h"}, "Calu-3 [3]": {"tested_on": "Calu-3", "experiment": "cell viability relative to DMSO; higher = less toxic", "conditions": "72 h"}, "HepG2 [4]": {"tested_on": "HepG2", "experiment": "cell viability relative to DMSO; higher = less toxic", "conditions": "72 h"}, "U2OS [5]": {"tested_on": "U2OS", "experiment": "cell viability relative to DMSO; higher = less toxic", "conditions": "72 h"}, "Vero E6 [6]": {"tested_on": "Vero E6", "experiment": "cell viability relative to DMSO; higher = less toxic", "conditions": "72 h"}, "[7]": {"tested_on": "A549-ACE2 infected with SARS-CoV-2", "experiment": "SARS-CoV-2 infection rate relative to DMSO; higher = more infection", "conditions": "24 h"}, "A549-ACE2 [8]": {"tested_on": "A549-ACE2", "experiment": "phospholipidosis EC50; higher = less potent phospholipidosis inducer"}, "A549-ACE2 [9]": {"tested_on": "A549-ACE2", "experiment": "drug-induced phospholipidosis relative to tamoxifen; higher = more phospholipidosis"}, "[10]": {"tested_on": "A549-ACE2 infected with SARS-CoV-2", "experiment": "morphology score (similarity to uninfected cells); higher = more like uninfected cells", "conditions": "24 h"}, "Caco-2 [11]": {"tested_on": "Caco-2", "experiment": "relative viability EC50 (midpoint between 100% and the lowest measured viability); higher = less toxic", "conditions": "72 h"}, "Calu-3 [12]": {"tested_on": "Calu-3", "experiment": "relative viability EC50 (midpoint between 100% and the lowest measured viability); higher = less toxic", "conditions": "72 h"}, "U2OS [13]": {"tested_on": "U2OS", "experiment": "relative viability EC50 (midpoint between 100% and the lowest measured viability); higher = less toxic", "conditions": "72 h"}, "Vero E6 [14]": {"tested_on": "Vero E6", "experiment": "relative viability EC50 (midpoint between 100% and the lowest measured viability); higher = less toxic", "conditions": "72 h"}, "Caco-2 [15]": {"tested_on": "Caco-2", "experiment": "drug sensitivity score (DSS) for viability; higher = more toxic; extreme values may be limits of the assay", "conditions": "72 h"}, "Calu-3 [16]": {"tested_on": "Calu-3", "experiment": "drug sensitivity score (DSS) for viability; higher = more toxic; extreme values may be limits of the assay", "conditions": "72 h"}, "HepG2 [17]": {"tested_on": "HepG2", "experiment": "drug sensitivity score (DSS) for viability; higher = more toxic; extreme values may be limits of the assay", "conditions": "72 h"}, "U2OS [18]": {"tested_on": "U2OS", "experiment": "drug sensitivity score (DSS) for viability; higher = more toxic; extreme values may be limits of the assay", "conditions": "72 h"}, "Vero E6 [19]": {"tested_on": "Vero E6", "experiment": "drug sensitivity score (DSS) for viability; higher = more toxic; extreme values may be limits of the assay", "conditions": "72 h"}}}
{"compound": "CN1CCN(CCCN2c3ccccc3Sc3ccc(Cl)cc32)CC1", "note": "[prochlorperazine]", "values": [{"measurement": "cell count", "setting": "[1]; 0.3 µM", "value": 100, "unit": "%"}, {"measurement": "cell count", "setting": "[1]; 3 µM", "value": 123, "unit": "%"}, {"measurement": "cell count", "setting": "[1]; 10 µM", "value": 117, "unit": "%"}, {"measurement": "cell count", "setting": "[1]; 30 µM", "value": 64, "unit": "%"}, {"measurement": "cell viability", "setting": "Caco-2 [2]; 1 nM", "value": 100, "unit": "%"}, {"measurement": "cell viability", "setting": "Caco-2 [2]; 10 nM", "value": 84.1, "unit": "%"}, {"measurement": "cell viability", "setting": "Caco-2 [2]; 100 nM", "value": 96.9, "unit": "%"}, {"measurement": "cell viability", "setting": "Caco-2 [2]; 1000 nM", "value": 99.8, "unit": "%"}, {"measurement": "cell viability", "setting": "Caco-2 [2]; 10000 nM", "value": 76.6, "unit": "%"}, {"measurement": "cell viability", "setting": "Calu-3 [3]; 1 nM", "value": 106, "unit": "%"}, {"measurement": "cell viability", "setting": "Calu-3 [3]; 10 nM", "value": 103, "unit": "%"}, {"measurement": "cell viability", "setting": "Calu-3 [3]; 100 nM", "value": 105, "unit": "%"}, {"measurement": "cell viability", "setting": "Calu-3 [3]; 1000 nM", "value": 105, "unit": "%"}, {"measurement": "cell viability", "setting": "Calu-3 [3]; 10000 nM", "value": 93.2, "unit": "%"}, {"measurement": "cell viability", "setting": "HepG2 [4]; 1 nM", "value": 107, "unit": "%"}, {"measurement": "cell viability", "setting": "HepG2 [4]; 10 nM", "value": 102, "unit": "%"}, {"measurement": "cell viability", "setting": "HepG2 [4]; 100 nM", "value": 97, "unit": "%"}, {"measurement": "cell viability", "setting": "HepG2 [4]; 1000 nM", "value": 106, "unit": "%"}, {"measurement": "cell viability", "setting": "HepG2 [4]; 10000 nM", "value": 55.5, "unit": "%"}, {"measurement": "cell viability", "setting": "U2OS [5]; 1 nM", "value": 103, "unit": "%"}, {"measurement": "cell viability", "setting": "U2OS [5]; 10 nM", "value": 94.5, "unit": "%"}, {"measurement": "cell viability", "setting": "U2OS [5]; 100 nM", "value": 98.6, "unit": "%"}, {"measurement": "cell viability", "setting": "U2OS [5]; 1000 nM", "value": 94, "unit": "%"}, {"measurement": "cell viability", "setting": "U2OS [5]; 10000 nM", "value": 91.4, "unit": "%"}, {"measurement": "cell viability", "setting": "Vero E6 [6]; 1 nM", "value": 96, "unit": "%"}, {"measurement": "cell viability", "setting": "Vero E6 [6]; 10 nM", "value": 92.5, "unit": "%"}, {"measurement": "cell viability", "setting": "Vero E6 [6]; 100 nM", "value": 101, "unit": "%"}, {"measurement": "cell viability", "setting": "Vero E6 [6]; 1000 nM", "value": 97.4, "unit": "%"}, {"measurement": "cell viability", "setting": "Vero E6 [6]; 10000 nM", "value": 81, "unit": "%"}, {"measurement": "SARS-CoV-2 infection rate", "setting": "[7]; 0.3 µM", "value": 95, "unit": "%"}, {"measurement": "SARS-CoV-2 infection rate", "setting": "[7]; 3 µM", "value": 29, "unit": "%"}, {"measurement": "SARS-CoV-2 infection rate", "setting": "[7]; 10 µM", "value": 12, "unit": "%"}, {"measurement": "SARS-CoV-2 infection rate", "setting": "[7]; 30 µM", "value": 50, "unit": "%"}, {"measurement": "phospholipidosis EC50", "setting": "A549-ACE2 [8]; 24 h", "value": 3.19, "unit": "µM"}, {"measurement": "phospholipidosis EC50", "setting": "A549-ACE2 [8]; 48 h", "value": 4.05, "unit": "µM"}, {"measurement": "phospholipidosis EC50", "setting": "A549-ACE2 [8]; 72 h", "value": 12.5, "unit": "µM"}, {"measurement": "drug-induced phospholipidosis", "setting": "A549-ACE2 [9]; 0.3 µM, 24 h", "value": 1.08, "unit": "%"}, {"measurement": "drug-induced phospholipidosis", "setting": "A549-ACE2 [9]; 0.3 µM, 48 h", "value": 0.82, "unit": "%"}, {"measurement": "drug-induced phospholipidosis", "setting": "A549-ACE2 [9]; 0.3 µM, 72 h", "value": 3.57, "unit": "%"}, {"measurement": "drug-induced phospholipidosis", "setting": "A549-ACE2 [9]; 0.833333 µM, 24 h", "value": 10.5, "unit": "%"}, {"measurement": "drug-induced phospholipidosis", "setting": "A549-ACE2 [9]; 0.833333 µM, 48 h", "value": 7.81, "unit": "%"}, {"measurement": "drug-induced phospholipidosis", "setting": "A549-ACE2 [9]; 0.833333 µM, 72 h", "value": 9.54, "unit": "%"}, {"measurement": "drug-induced phospholipidosis", "setting": "A549-ACE2 [9]; 3.33333 µM, 24 h", "value": 48.6, "unit": "%"}, {"measurement": "drug-induced phospholipidosis", "setting": "A549-ACE2 [9]; 3.33333 µM, 48 h", "value": 45.8, "unit": "%"}, {"measurement": "drug-induced phospholipidosis", "setting": "A549-ACE2 [9]; 3.33333 µM, 72 h", "value": 35, "unit": "%"}, {"measurement": "drug-induced phospholipidosis", "setting": "A549-ACE2 [9]; 6.66667 µM, 24 h", "value": 76.3, "unit": "%"}, {"measurement": "drug-induced phospholipidosis", "setting": "A549-ACE2 [9]; 6.66667 µM, 48 h", "value": 83.3, "unit": "%"}, {"measurement": "drug-induced phospholipidosis", "setting": "A549-ACE2 [9]; 6.66667 µM, 72 h", "value": 75, "unit": "%"}, {"measurement": "drug-induced phospholipidosis", "setting": "A549-ACE2 [9]; 10 µM, 24 h", "value": 92.2, "unit": "%"}, {"measurement": "drug-induced phospholipidosis", "setting": "A549-ACE2 [9]; 10 µM, 48 h", "value": 94.4, "unit": "%"}, {"measurement": "drug-induced phospholipidosis", "setting": "A549-ACE2 [9]; 10 µM, 72 h", "value": 104, "unit": "%"}, {"measurement": "drug-induced phospholipidosis", "setting": "A549-ACE2 [9]; 30 µM, 24 h", "value": 56.6, "unit": "%"}, {"measurement": "morphology score", "setting": "[10]; 0.3 µM", "value": 0}, {"measurement": "morphology score", "setting": "[10]; 3 µM", "value": 0.84}, {"measurement": "morphology score", "setting": "[10]; 10 µM", "value": 0.79}, {"measurement": "morphology score", "setting": "[10]; 30 µM", "value": 0.19}, {"measurement": "relative viability EC50", "setting": "Caco-2 [11]", "value": "> 10", "unit": "µM"}, {"measurement": "relative viability EC50", "setting": "Calu-3 [12]", "value": "> 10", "unit": "µM"}, {"measurement": "relative viability EC50", "setting": "U2OS [13]", "value": "> 10", "unit": "µM"}, {"measurement": "relative viability EC50", "setting": "Vero E6 [14]", "value": "> 10", "unit": "µM"}, {"measurement": "drug sensitivity score", "setting": "Caco-2 [15]", "value": 0.9}, {"measurement": "drug sensitivity score", "setting": "Calu-3 [16]", "value": 0}, {"measurement": "drug sensitivity score", "setting": "HepG2 [17]", "value": 1.9}, {"measurement": "drug sensitivity score", "setting": "U2OS [18]", "value": 0}, {"measurement": "drug sensitivity score", "setting": "Vero E6 [19]", "value": 0.9}]}
